Measurements reported in US10722520B2, “Heterocyclic compounds and their use in preventing or treating bacterial infections” (MUTABILIS, priority 2016, dated 2020).

Key:
KPC-2 = KPC-2 (Klebsiella pneumoniae, UniProt Q9F663)
TEM-1 = TEM-1 (Escherichia coli, UniProt P62593)
K. pneumoniae UFR77 [1] = test: MIC of ceftazidime (CAZ) at fixed concentration of compound (synergy), broth microdilution; format: cell-based; conditions: strain UFR77 (K. pneumoniae); for MIC combination of CAZ and compounds of the invention at 4 μg/mL: MIC of ceftazidime with compound fixed at 4 μg/mL
Method in brief: (§1)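 Visual end point: lowest concentration that blocked growth. Conditions: cation-adjusted Mueller-Hinton broth, 5×10^5 cfu/mL final inoculum of log-phase bacteria, 16-20 h, 35° C, ambient atmosphere.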

K. pneumoniae UFR68 = test: MIC of compound alone, broth microdilution; format: cell-based; conditions: Klebsiella pneumoniae; strain UFR68: K. pneumoniae; TEM-1, SHV-11, CTX-M-15, KPC-3; read-out: MIC compounds of the invention alone
Method in brief: as §1

K. pneumoniae 6299 = test: MIC of compound alone, broth microdilution; format: cell-based; conditions: Klebsiella pneumoniae; strain 6299: K. pneumoniae; TEM-1, SHV-11, OXA-163; read-out: MIC compounds of the invention alone
Method in brief: as §1

E. coli UFR74 = test: MIC of compound alone, broth microdilution; format: cell-based; conditions: Escherichia coli; strain UFR74: E. coli; SHV-1, DHA-1; read-out: MIC compounds of the invention alone
Method in brief: as §1

K. oxytoca UFR21 = test: MIC of compound alone, broth microdilution; format: cell-based; conditions: Klebsiella oxytoca; strain UFR21: K. oxytoca; TEM-1, CTX-M-15, OXA-48; read-out: MIC compounds of the invention alone
Method in brief: as §1

E. cloacae UFR51 = test: MIC of compound alone, broth microdilution; format: cell-based; conditions: Enterobacter cloacae; strain UFR51: E. cloacae; SHV-12, IMP-8; read-out: MIC compounds of the invention alone
Method in brief: as §1

E. coli UFR61O = test: MIC of compound alone, broth microdilution; format: cell-based; conditions: Escherichia coli; strain UFR61O: E. coli; TEM-1, KPC-2; read-out: MIC compounds of the invention alone
Method in brief: as §1

E. coli UFR32 = test: MIC of compound alone, broth microdilution; format: cell-based; conditions: Escherichia coli; strain UFR32: E. coli; TEM-1, VEB-1, OXA-10; read-out: MIC compounds of the invention alone
Method in brief: as §1

E. cloacae P99 = test: MIC of compound alone, broth microdilution; format: cell-based; conditions: Enterobacter cloacae; strain P99: E. cloacae; AmpC; read-out: MIC compounds of the invention alone
Method in brief: as §1

K. pneumoniae UFR77 [2] = test: MIC of compound alone, broth microdilution; format: cell-based; conditions: Klebsiella pneumoniae; strain UFR77: K. pneumoniae; CMY-2; read-out: MIC compounds of the invention alone
Method in brief: as §1

E. coli UFR18 = test: MIC of compound alone, broth microdilution; format: cell-based; conditions: Escherichia coli; strain UFR18: E. coli; CTX-M-15, OXA-204; read-out: MIC compounds of the invention alone
Method in brief: as §1

K. pneumoniae 160143 = test: MIC of compound alone, broth microdilution; format: cell-based; conditions: Klebsiella pneumoniae; strain 160143: K. pneumoniae; TEM-1, SHV-1, CTX-M-15, KPC-2, OXA-1; read-out: MIC compounds of the invention alone
Method in brief: as §1

E. cloacae UFR85 = test: MIC of compound alone, broth microdilution; format: cell-based; conditions: Enterobacter cloacae; strain UFR85: E. cloacae; TEM-1, CTX-M-15, AmpC; read-out: MIC compounds of the invention alone
Method in brief: as §1

E. coli 190317 = test: MIC of compound alone, broth microdilution; format: cell-based; conditions: Escherichia coli; strain 190317: E. coli; TEM-1, SHV-12, CTX-M-15, OXA-1; read-out: MIC compounds of the invention alone
Method in brief: as §1

E. cloacae 260508 = test: MIC of compound alone, broth microdilution; format: cell-based; conditions: Enterobacter cloacae; strain 260508: E. cloacae; TEM-1, CTX-M-15; read-out: MIC compounds of the invention alone
Method in brief: as §1

K. pneumoniae BAA-1898 = test: MIC of compound alone, broth microdilution; format: cell-based; conditions: Klebsiella pneumoniae, BAA1898; strain BAA-1898: K. pneumoniae; TEM-1, SHV-11, SHV-12, KPC-2; read-out: MIC compounds of the invention alone
Method in brief: as §1

P. aeruginosa CIP107051 = test: MIC of compound alone, broth microdilution; format: cell-based; conditions: Pseudomonas aeruginosa; strain CIP107051: P. aeruginosa; TEM-24; read-out: MIC compounds of the invention alone
Method in brief: as §1

K. pneumoniae 200047 = test: MIC of compound alone, broth microdilution; format: cell-based; conditions: Klebsiella pneumoniae; strain 200047: K. pneumoniae; TEM-1, SHV-32, CTX-M-15, OXA-1; read-out: MIC compounds of the invention alone
Method in brief: as §1

E. coli 131119 = test: MIC of compound alone, broth microdilution; format: cell-based; conditions: Escherichia coli; strain 131119: E. coli; TEM-1, OXA-48; read-out: MIC compounds of the invention alone
Method in brief: as §1

K. pneumoniae UFR24 = test: MIC of compound alone, broth microdilution; format: cell-based; conditions: Klebsiella pneumoniae; strain UFR24: K. pneumoniae; TEM-1, SHV-2, SHV-11, OXA-1, OXA-48, OXA-47; read-out: MIC compounds of the invention alone
Method in brief: as §1

E. coli UFR39 = test: MIC of compound alone, broth microdilution; format: cell-based; conditions: Escherichia coli, UFR39, read-out: MIC compounds of the invention alone
Method in brief: as §1

E. cloacae UFR70 = test: MIC of compound alone, broth microdilution; format: cell-based; conditions: Enterobacter cloacae; strain UFR70: E. cloacae; TEM-1, CTX-M-15, CMY-2, OXA-1, Porin loss; read-out: MIC compounds of the invention alone
Method in brief: as §1

E. coli UFR41 = test: MIC of compound alone, broth microdilution; format: cell-based; conditions: Escherichia coli; strain UFR41: E. coli; TEM-1, CTX-M-15, CMY-2, OXA-1, NDM-4; read-out: MIC compounds of the invention alone
Method in brief: as §1

OXA-15 = OXA-15 (Pseudomonas aeruginosa, UniProt Q51574); test: biochemical
OXA-15, sequence (Q51574 22-275): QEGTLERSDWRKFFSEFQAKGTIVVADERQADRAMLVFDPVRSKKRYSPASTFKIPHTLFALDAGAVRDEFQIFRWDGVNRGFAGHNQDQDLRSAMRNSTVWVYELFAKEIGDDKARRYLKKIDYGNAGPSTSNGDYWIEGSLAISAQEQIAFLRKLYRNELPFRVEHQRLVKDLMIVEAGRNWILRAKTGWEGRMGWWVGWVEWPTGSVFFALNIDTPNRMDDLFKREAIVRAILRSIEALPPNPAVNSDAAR

TEM-1, sequence (P62593 24-286 limits assumed): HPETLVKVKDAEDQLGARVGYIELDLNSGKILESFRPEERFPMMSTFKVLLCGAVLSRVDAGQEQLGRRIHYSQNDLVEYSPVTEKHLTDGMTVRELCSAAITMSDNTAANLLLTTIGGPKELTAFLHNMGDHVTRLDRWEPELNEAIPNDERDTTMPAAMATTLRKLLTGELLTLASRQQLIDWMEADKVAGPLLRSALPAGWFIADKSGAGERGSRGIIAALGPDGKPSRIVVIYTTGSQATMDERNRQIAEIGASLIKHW
KPC-2, sequence (Q9F663 25-293, looked up, species assumed): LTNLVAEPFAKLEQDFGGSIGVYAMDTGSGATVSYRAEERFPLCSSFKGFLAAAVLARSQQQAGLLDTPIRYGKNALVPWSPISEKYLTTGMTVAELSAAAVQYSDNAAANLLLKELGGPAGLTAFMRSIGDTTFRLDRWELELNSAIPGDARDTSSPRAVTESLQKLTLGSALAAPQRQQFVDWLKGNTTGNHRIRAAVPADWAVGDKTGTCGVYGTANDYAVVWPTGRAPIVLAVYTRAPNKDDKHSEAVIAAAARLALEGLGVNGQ

SMILES	IC50 (KPC-2) [nM]	IC50 (TEM-1) [nM]	MIC (K. pneumoniae UFR68) [mg/L]	MIC (K. pneumoniae 6299) [mg/L]	MIC (E. coli UFR74) [mg/L]	MIC (K. oxytoca UFR21) [mg/L]	MIC (E. cloacae UFR51) [mg/L]	MIC (E. coli UFR61O) [mg/L]	MIC (E. coli UFR32) [mg/L]	MIC (E. cloacae P99) [mg/L]	MIC (K. pneumoniae UFR77 [2]) [mg/L]	MIC (E. coli UFR18) [mg/L]	MIC (K. pneumoniae 160143) [mg/L]	MIC (E. cloacae UFR85) [mg/L]	MIC (E. coli 190317) [mg/L]	MIC (E. cloacae 260508) [mg/L]	MIC (K. pneumoniae BAA-1898) [mg/L]	MIC (P. aeruginosa CIP107051) [mg/L]	MIC (K. pneumoniae 200047) [mg/L]	MIC (E. coli 131119) [mg/L]	further results
O=C1N2CC(n3cncn3)=CC(C2)N1OS(=O)(=O)[O-].[Na+] (centres unmarked) [Example 5, sodium [7-oxo-3-(1,2,4-triazol-1-yl)-1,6-diazabicyclo[3.2.1]oct-3-en-6-yl]sulfate]	3	0.8	4	4	4	4	4	8	2	4	4	2	2	4	1	4	4	> 32	2	2	MIC combination of CAZ and compound at 8 μg/mL (K. pneumoniae UFR77 [1]; footnote *: MIC of ceftazidime with compound fixed at 8 μg/mL): <0.25; MIC (K. pneumoniae UFR24): 2 mg/L; MIC (E. coli UFR39): 2 mg/L; MIC (E. cloacae UFR70): 2 mg/L; MIC (E. coli UFR41): 4 mg/L; IC50 (OXA-15): 27 nM
O=C1N2CC(n3ccnn3)=C[C@H](C2)N1OS(=O)(=O)O [Example 6, sodium [(5R)-7-oxo-3-(triazol-1-yl)-1,6-diazabicyclo[3.2.1]oct-3-en-6-yl]sulfate]	2.1	0.36	1	2	1	1	1	2	0.5	1	1	0.5	1	1	0.5	1	2	32	1	0.5	MIC combination of CAZ and compounds of the invention at 4 μg/mL (K. pneumoniae UFR77 [1]): <0.25; MIC (K. pneumoniae UFR24): 1 mg/L; MIC (E. coli UFR39): 1 mg/L; MIC (E. cloacae UFR70): 0.5 mg/L; MIC (E. coli UFR41): 2 mg/L; IC50 (OXA-15): 21 nM
O=C1N2CC(n3nccn3)=CC(C2)N1OS(=O)(=O)O (centres unmarked) [Example 3, sodium [7-oxo-3-(triazol-2-yl)-1,6-diazabicyclo[3.2.1]oct-3-en-6-yl]sulfate]	12	0.73	8	16	8	8	2	8	2	8	4	2	4	4	2	4	8	> 32	4	1	MIC combination of CAZ and compounds of the invention at 4 μg/mL (K. pneumoniae UFR77 [1]): <0.25; MIC (K. pneumoniae UFR24): 8 mg/L; MIC (E. coli UFR39): 8 mg/L; MIC (E. cloacae UFR70): 4 mg/L; MIC (E. coli UFR41): 16 mg/L; IC50 (OXA-15): 190 nM
O=C1N2CC(n3ccsc3=O)=CC(C2)N1OS(=O)(=O)[O-].[Na+] (centres unmarked) [Example 1, Sodium [7-oxo-3-(2-oxo-thiazol-3-yl)-1,6-diaza-bicyclo[3.2.1]oct-3-en-6-yl]sulfate]	13	0.25	8	32	16	8	4	16	4	4	8	2	4	4	2	4	8	> 32	8	2	MIC combination of CAZ and compounds of the invention at 4 μg/mL (K. pneumoniae UFR77 [1]): ≤0.25; MIC (K. pneumoniae UFR24): 16 mg/L; MIC (E. coli UFR39): 2 mg/L; MIC (E. cloacae UFR70): 4 mg/L; MIC (E. coli UFR41): 4 mg/L; IC50 (OXA-15): 92 nM
